Assay results taken from ChEMBL document CHEMBL1159357, “Labdane and kaurane diterpenoids from Plectranthus fruticosus” (2003).
Converted amounts (≈) assume the structure as drawn. The source made the active and inactive calls. The rule behind the calls is not given here.

System: Staphylococcus aureus
Assay: Antimicrobial activity against Staphylococcus aureus
Assay type: functional

Row | SMILES | Activity | MIC [µg/mL]
1 | C=C1C[C@@]23CC[C@H]4[C@@](C)(CCC[C@@]4(C)C(=O)OC)[C@@H]2C[C@H](OC(C)=O)[C@H]1C3 | inactive | 
2 | COC(=O)[C@]1(C)CCC[C@@]2(C)[C@@H]3CC[C@H]4C[C@@]3(CC[C@@H]21)[C@H]1O[C@@]41C | inactive | 
3 | C=C/C(C)=C/C[C@H]1C(=C)CC[C@H]2C(C)(C)[C@@H](OC(C)=O)[C@H](O)C[C@]12C | inactive | 
4 | COC(=O)[C@]1(C)CCC[C@@]2(C)[C@@H]3C[C@H](OC(C)=O)[C@H]4C[C@]3(C=C4C)CC[C@@H]21 | inactive | 
5 | C=C/C(C)=C\C[C@@H]1C(=C)CC[C@@H]2C(C)(C)C[C@@H](OC(C)=O)C[C@@]12C | inactive | 
6 | C[C@@]1(CO)CCC[C@]2(C)[C@@H]1CC[C@@]13C[C@H](CC[C@@H]21)[C@]1(C)O[C@H]31 | inactive | 
7 | C[C@@]12CCC[C@@](C)(C(=O)O)[C@H]1CC[C@@]13C[C@H](CC[C@@H]21)[C@]1(C)O[C@H]31 |  | 31.2 (≈ 98.1 µM)
